The numbers were not newly measured in paper PMC8198792, “Prediction of Anticancer Peptides with High Efficacy and Low Toxicity by Hybrid Model Based on 3D Structure of Peptides” (International Journal of Molecular Sciences, 2021), which cites them from elsewhere.

This data set has as its system cancer cell lines. Also on record: method as in 6 sources, ref CancerPPD [45] and SATPdb ||| ref CancerPPD/SATPdb ||| ref CancerPPD, SATPdb, Swissprot (PDB) ||| ref CancerPPD/SATPdb/Swissprot(PDB) ||| ref CancerPPD / SATPdb ||| ... Conditions: cited from earlier work. The source says:
Supplement ijms-22-05630-s001.zip/ACPs(seguence).xlsx, sheet "D1" | column: Activity || Supplement ijms-22-05630-s001.zip/ACPs(seguence).xlsx, sheet "D2" | column: Activity || Supplement ijms-22-05630-s001.zip/ACPs(seguence).xlsx, sheet "D3" | column: Activity || (+ 2 further places)

[1] abbreviates: ACPs dataset D1, 1 = ACP (positive), 0 = non-ACP (negative), label taken from databases, ref CancerPPD [45] and SATPdb.
Setting [2] is: ACPs dataset D4 (sheet "D4"), label 1 = ACP, experimentally validated ACPs, ref CancerPPD [45] and SATPdb.
Where [3] appears, read: ACPs dataset D5 (sheet "D5"), label 1 = ACP (positive set), sequences with CancerPPD/SATPdb ID, ref CancerPPD, SATPdb.
[4] abbreviates: ACPs dataset sheet D2, 1 = ACP (CancerPPD/SATPdb ID), 0 = non-ACP (Swissprot/PDB ID), ref CancerPPD, SATPdb, Swissprot (PDB).
[5] abbreviates: ACPs dataset D4 (sheet "D4"), label 1 = ACP (CancerPPD ID), 0 = non-ACP (non-anticancer AMP, SATPdb ID), ref CancerPPD [45] and SATPdb.
Where [6] appears, read: ACPs dataset D3 (supplement sheet "D3"), 1 = ACP, 0 = non-ACP, ref CancerPPD [45] and SATPdb.
The mark [7] stands for this setting: ACPs dataset D5 (sheet "D5"), label 1 = ACP (positive set), 0 = non-ACP (negative set), ref CancerPPD [45] and SATPdb.
Setting [8] is: ACPs dataset D2 (supplement ACPs(seguence).xlsx, sheet D2), dataset label 1/0 (ACP / non-ACP), entries identified by Swissprot(PDB ID), ref CancerPPD/SATPdb/Swissprot(PDB).
Where [9] appears, read: ACPs dataset D5, sheet "D5", label 1 = ACP, 0 = non-ACP, ref CancerPPD [45] and SATPdb.
[10] abbreviates: ACPs dataset D3 (sheet "D3"), label 1 = ACP, 0 = non-ACP, ref CancerPPD/SATPdb.
[11] abbreviates: ACPs dataset D1, label 1 = ACP, 0 = non-ACP (non-anticancer AMPs from SATPdb), ref CancerPPD/SATPdb.
The mark [12] stands for this setting: ACPs dataset D4 (sheet "D4"), label 1 = ACP, 0 = non-ACP, ref CancerPPD / SATPdb.

Read-outs that look alike come from different tables or passages of the source.

For HHPHGHHPHGHHPHGHHPHG [compound 4189], the Activity under setting [1] is on record as 1, the Activity under setting [2] was 1, the Activity under setting [3] was 1 and the Activity under setting [4] is listed as 1.
Take KSVRGKGKGQKRKRKKSRYK [satpdb21584]: the Activity is recorded as 1 under setting [1], 1 under setting [2], 1 under setting [3] and 1 under setting [4].
Turning to “GIFSSRKCKTPSKTFKGYCTRDSNCDTSCRYEGYPAGD [satpdb10659]”, the Activity reads like this: under setting [1], 0; under setting [5], 0.
On to GLFDVIKKVASVIGGL [compound 1421], for which the Activity under setting [6] is listed as 1, the Activity under setting [5] was 1 and the Activity under setting [7] is recorded as 1.
In the case of “MDIYVCTVCGYEYDPAKGDPDSGIKPGTKFEDLPDDWACPVCGASKDAFEKQ [2DSX X-ray 0.68 A 1-52]”, the Activity under setting [8] is listed as 0 and the Activity under setting [9] is on record as 0.
GVWSTILGGLKKFAKGGLDAIVNPK [satpdb10425]: the Activity is recorded as 0 under setting [1] and 0 under setting [5].
With ALWKTLLKKVLKA [satpdb11986], the Activity under setting [10] was 0.
As to RCRLAERRQIAK [satpdb18274], the Activity is given as 1 under setting [1], 1 under setting [2], 1 under setting [3] and 1 under setting [4].
With FLKDHRISTFKNWPF [satpdb15356], the Activity was 1 under setting [1], 1 under setting [2], 1 under setting [3] and 1 under setting [4].
As for “SILSTLKDVGISAIKNAGSGVLKTLLCKLNKNCEK [satpdb12439]”, the Activity under setting [11] is reported as 0 and the Activity under setting [5] is given as 0.
In the case of CLGVGSCNDFAGCGYAIVCFW [satpdb11014], the Activity is, setting by setting: under setting [1], 0; under setting [5], 0.
FFPIVGKLLFGLL [satpdb13027]: the Activity is given as 0 under setting [10], 0 under setting [12] and 0 under setting [9].
With “FDVNSHTTPCGPVTCSGAQMCEVDKCVCSDLHCKVKCEHGFKKDDNGCEYACICADAPQ [1EJA X-ray 2.70 B 1-59]”, the Activity is 0 under setting [8] and 0 under setting [9].
With “GSSFLSPEHQLAQQRKESKKPPAKLQPR [satpdb13082]”, the Activity by setting is: under setting [11], 0; under setting [12], 0.
Turning to KWKLFKKIGIGKFKLAKKF [compound 1206], the Activity is on record as 1 under setting [6], 1 under setting [5] and 1 under setting [7].
For “KWKSFLKTFKSLKkTVLHTLLKAISS [compound 3760]”, the Activity under setting [6] is listed as 1, the Activity under setting [5] was 1 and the Activity under setting [7] is reported as 1.
Consider “GIINTLQKYYSRVRGGRSAVLSSLPKEEQIGKSSTRGRKSSRRKK [satpdb11018]”, for which the Activity is on record as 0 under setting [1] and 0 under setting [5].
In the case of “KWKSFLKTFKSlKKTVLHTlLKAISS [compound 3756]”, the Activity by setting is: under setting [6], 1; under setting [5], 1; under setting [7], 1.
As to “GSEGPLKPGARIFSFDGKDVLRHPT [compound 4204]”, the Activity runs as follows: under setting [1], 1; under setting [2], 1; under setting [3], 1; under setting [4], 1.
NGKQVCLDPEAPFLKKVIQKILDS [satpdb17154]: the Activity under setting [1] is reported as 1, the Activity under setting [2] is on record as 1, the Activity under setting [3] is 1 and the Activity under setting [4] is 1.
Regarding LGGIVSAVKKIVDFLG [compound 1903], the Activity under setting [6] is on record as 1, the Activity under setting [5] was 1 and the Activity under setting [7] is on record as 1.
For “GGLKKLGKKLEGAGKRVFNAAEKALPVVAGAKALG [satpdb11024]”, the Activity is recorded as 0 under setting [1] and 0 under setting [5].
In the case of GIFLKVLGVGKKVLCGVSGLC [satpdb12520], the Activity runs as follows: under setting [11], 0; under setting [5], 0.
In the case of SPWTKCSATCGGGHYMRTR [satpdb19979], the Activity is recorded as 1 under setting [1], 1 under setting [2], 1 under setting [3] and 1 under setting [4].
For the substance “GLFTLIKGAAKLIGKTVPKKQARLGMNLWLVKLPTNVKT [satpdb12795]”, the Activity under setting [11] was 0 and the Activity under setting [12] is on record as 0.
For the substance SPWSQCTASCGGGVQTR [satpdb21725], the Activity is, setting by setting: under setting [1], 1; under setting [2], 1; under setting [3], 1; under setting [4], 1.
Consider VGSGGCMFGNGK [satpdb10083], for which the Activity runs as follows: under setting [1], 1; under setting [2], 1; under setting [3], 1; under setting [4], 1.
Regarding “FIHHIFRGIV HAGRSIGRFL TG [2MCW NMR - A 1-22]”, the Activity reads like this: under setting [7], 0; under setting [4], 0.
Consider ITMQGIQGQKIRMIMF [satpdb23309], for which the Activity is 1 under setting [1], 1 under setting [2], 1 under setting [3] and 1 under setting [4].
Take EIPSCESSASPDQSDSSVPPEE [satpdb17950]: the Activity is, setting by setting: under setting [1], 1; under setting [2], 1; under setting [3], 1; under setting [4], 1.
As for “QCESGPCCRNCKFLKEGTICKRARGDDMDDYCNGKTCDCPRNPHKGPAT [1RO3 NMR - A 1-49]”, the Activity runs as follows: under setting [8], 0; under setting [7], 0.
As to “ACYCRIPACLAGERRYGTCFYMGRVWAFCC [satpdb12594]”, the Activity is recorded as 0 under setting [11] and 0 under setting [5].
Consider “SDQGDVAEPKMHKTAPPFDFEAIPEEYLDDES [3B23 X-ray 2.40 C 1-32]”, for which the Activity under setting [7] is 0 and the Activity under setting [4] was 0.
As to ITPATPFTPAIITEITAAVIA [satpdb10693], the Activity is reported as 0 under setting [1] and 0 under setting [5].
For “FFGWLIKGAIHAGKAIHGLIHRRRH [compound 4436]”, the Activity by setting is: under setting [1], 1; under setting [2], 1; under setting [3], 1; under setting [4], 1.
VKLLVyPLKVKLyP [satpdb13876]: the Activity by setting is: under setting [10], 0; under setting [12], 0; under setting [9], 0.
For the substance “FLPKTLRKFFCRIRGGRCAVLNCLGKEEQIGRCSNSGRKCCRKKK [satpdb12338]”, the Activity by setting is: under setting [11], 0; under setting [5], 0.
Turning to “KWkSFLkTFkSLKkTVLHTLLkAISS [compound 3764]”, the Activity reads like this: under setting [6], 1; under setting [5], 1; under setting [7], 1.
“KTCENLSGTFKGPCIPDGNCNKHCRNNEHLLSGRCRDDFRCWCTNRC [6NOM NMR - A 1-47]”: the Activity by setting is: under setting [8], 0; under setting [7], 0.
Turning to “KWKSFlKTFKSlKKTVlHTlLKAISS [compound 3772]”, the Activity is listed as 1 under setting [6], 1 under setting [5] and 1 under setting [7].
For “MFSPILSLEIILALATLQSVFAQPVICTTVGSAAEGS [satpdb11835]”, the Activity under setting [1] is 1, the Activity under setting [2] is listed as 1, the Activity under setting [3] is 1 and the Activity under setting [4] is on record as 1.
As for “EYHLMNGANGYLTRVNGKTVYRVTKDPVSAVFGVISNCWGSAGAGFGPQH [satpdb10230]”, the Activity is given as 0 under setting [1] and 0 under setting [5].
Consider FKCRRWQWRMKKLGA [compound 1111], for which the Activity by setting is: under setting [6], 1; under setting [2], 1; under setting [3], 1.
In the case of GLFDIVKKVVGTLAGL [compound 4409], the Activity reads like this: under setting [1], 1; under setting [2], 1; under setting [3], 1; under setting [4], 1.
Regarding ALWKTLLKKVLKA [satpdb12593], the Activity is recorded as 0 under setting [12] and 0 under setting [9].
For the substance HGSTTLRDITV [satpdb28282], the Activity runs as follows: under setting [1], 1; under setting [2], 1; under setting [3], 1; under setting [4], 1.
Take LNWGAVLKHVVK [satpdb11336]: the Activity by setting is: under setting [6], 0; under setting [12], 0; under setting [9], 0.
